From ChEMBL document CHEMBL1155503, “Synthesis of neurotensin(8-13)-phosphopeptide heterodimers via click chemistry” (Bioorg Med Chem Lett, 2010)
Where a SMILES comes first, the peptide text is derived from it.

Target: Neurotensin receptor type 1 (Homo sapiens, UniProt P30989)
Assay: Displacement of [3H]neurotensin from NTR1 in human HT29 cells after 30 mins by liquid scintillation spectrometry
Assay type: cell-based, HT-29
Details: for Activity: HT-29

Neurotensin receptor type 1, sequence (P30989 whole entry): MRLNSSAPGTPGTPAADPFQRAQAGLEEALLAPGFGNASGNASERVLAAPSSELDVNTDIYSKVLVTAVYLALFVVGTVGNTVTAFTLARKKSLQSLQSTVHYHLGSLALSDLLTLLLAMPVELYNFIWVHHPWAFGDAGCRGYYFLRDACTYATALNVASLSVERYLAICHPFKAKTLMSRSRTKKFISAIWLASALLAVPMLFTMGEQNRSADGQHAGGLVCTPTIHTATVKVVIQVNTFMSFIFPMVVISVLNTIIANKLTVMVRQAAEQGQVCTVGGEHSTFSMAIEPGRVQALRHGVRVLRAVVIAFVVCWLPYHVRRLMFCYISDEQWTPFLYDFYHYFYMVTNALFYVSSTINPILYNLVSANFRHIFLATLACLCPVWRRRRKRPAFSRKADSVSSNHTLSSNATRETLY

| IC50 [nM] | Activity | SMILES |
| --- | --- | --- |
| 8300 | Dose-dependent effect | CSCC[C@H](NC(=O)CCCCn1cc(CCCC(=O)N[C@@H](CCCNC(=N)N)C(=O)N[C@@H](CCCNC(=N)N)C(=O)N2CCC[C@H]2C(=O)N[C@@H](Cc2ccc(O)cc2)C(=O)N[C@@H](CC(C)C)C(=O)N[C@@H](CC(C)C)C(=O)O)nn1)C(=O)N[C@@H](CCC(N)=O)C(=O)N[C@@H](CO)C(=O)N[C@H](C(=O)N1CCC[C@H]1C(=O)N[C@@H](CC(C)C)C(=O)O)[C@@H](C)OP(=O)(O)O |
| 1 | – | CC(C)C[C@H](NC(=O)[C@H](CC(C)C)NC(=O)[C@H](Cc1ccc(O)cc1)NC(=O)[C@@H]1CCCN1C(=O)[C@H](CCCNC(=N)N)NC(=O)[C@@H](N)CCCNC(=N)N)C(=O)O (H-RRPYLL-OH) |
| 700 | – | CSCC[C@H](NC(=O)CCCCn1cc(CCCC(=O)N[C@@H](CCCN=C(N)N)C(=O)N[C@@H](CCCN=C(N)N)C(=O)N2CCC[C@H]2C(=O)N[C@@H](Cc2ccc(O)cc2)C(=O)N[C@@H](CC(C)C)C(=O)N[C@@H](CC(C)C)C(=O)O)nn1)C(=O)N[C@@H](CCC(N)=O)C(=O)N[C@@H](CO)C(=O)N[C@H](C(=O)N1CCC[C@H]1C(=O)N[C@@H](CC(C)C)C(=O)O)[C@@H](C)O |
| – | Dose-dependent effect | CSCC[C@H](NC(=O)CCCCn1cc(CCCC(=O)N[C@@H](CCCNC(=N)N)C(=O)N[C@@H](CCCNC(=N)N)C(=O)N2CCC[C@H]2C(=O)N[C@@H](Cc2ccc(O)cc2)C(=O)N[C@@H](CC(C)C)C(=O)N[C@@H](CC(C)C)C(=O)O)nn1)C(=O)N[C@@H](CCC(N)=O)C(=O)N[C@@H](CO)C(=O)N[C@H](C(=O)N1CCC[C@H]1C(=O)N[C@@H](CC(C)C)C(=O)O)[C@@H](C)O |
